Measurements: BindingDB's records for doi:10.1021/acs.biochem.6b00412 (Duquesne University, 2016)
pKi: −log10 of the molar value.

Target: T1, Trifunctional purine biosynthetic protein adenosine-3 (Homo sapiens, UniProt P22102)
T1 sequence (P22102 whole entry): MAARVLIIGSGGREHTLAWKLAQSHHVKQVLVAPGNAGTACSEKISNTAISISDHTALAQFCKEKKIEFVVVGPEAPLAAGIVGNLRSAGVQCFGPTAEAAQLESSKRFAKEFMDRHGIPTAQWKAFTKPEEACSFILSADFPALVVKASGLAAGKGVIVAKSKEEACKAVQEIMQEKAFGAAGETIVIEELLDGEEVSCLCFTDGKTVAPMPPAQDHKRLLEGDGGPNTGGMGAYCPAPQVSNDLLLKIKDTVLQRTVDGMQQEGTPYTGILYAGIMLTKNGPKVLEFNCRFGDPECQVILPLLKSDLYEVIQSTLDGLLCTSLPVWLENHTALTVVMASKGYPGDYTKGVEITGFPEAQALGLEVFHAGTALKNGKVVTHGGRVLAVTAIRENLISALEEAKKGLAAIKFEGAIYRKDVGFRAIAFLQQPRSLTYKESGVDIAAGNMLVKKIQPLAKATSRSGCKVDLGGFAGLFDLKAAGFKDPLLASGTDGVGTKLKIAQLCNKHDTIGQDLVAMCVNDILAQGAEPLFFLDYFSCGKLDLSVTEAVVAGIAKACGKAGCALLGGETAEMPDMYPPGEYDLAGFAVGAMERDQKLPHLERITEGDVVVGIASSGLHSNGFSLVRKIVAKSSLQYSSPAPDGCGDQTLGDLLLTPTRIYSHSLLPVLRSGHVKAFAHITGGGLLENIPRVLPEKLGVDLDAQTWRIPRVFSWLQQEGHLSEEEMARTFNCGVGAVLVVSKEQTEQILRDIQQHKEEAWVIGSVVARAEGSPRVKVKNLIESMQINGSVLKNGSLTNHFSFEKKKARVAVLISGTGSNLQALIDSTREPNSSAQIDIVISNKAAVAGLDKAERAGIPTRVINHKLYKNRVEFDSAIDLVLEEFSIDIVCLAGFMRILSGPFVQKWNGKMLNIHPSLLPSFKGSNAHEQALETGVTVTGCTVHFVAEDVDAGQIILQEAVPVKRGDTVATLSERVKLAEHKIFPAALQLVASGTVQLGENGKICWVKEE
Test: GAR Transformylase Inhibition Assay
Details: pH 7.5
Procedure: To initiate the assay, 150 μL of 20 nM His-GARFTase or buffer was added, and the plate was shaken for 5 s. […] For each antifolate, triplicate assays were performed at 20 different drug concentrations.

SMILES | pKi
Nc1nc2[nH]c(CCCCc3ccc(C(=O)N[C@@H](CCC(=O)O)C(O)O)cc3)cc2c(=O)[nH]1 [AGF23] | 7.77
Nc1nc2[nH]c(CCCCc3ccc(C(=O)N[C@@H](CCC(=O)O)C(=O)O)s3)cc2c(=O)[nH]1 [(S)-2-({5-[4-(2-Amino-4-oxo-4,7-dihydro-3H-pyrrolo[2,3-d]-pyrimidin-6-yl)-butyl]-thiophene-2-carbonyl}-amino)-pentanedioicAcid] | 7.66
Nc1nc2sc(CCCCc3ccc(C(=O)N[C@@H](CCC(=O)O)C(O)O)cc3)cc2c(=O)[nH]1 [AGF50] | 5.97
Nc1nc2[nH]c(CCCCCCC(=O)N[C@H](CCC(=O)O)C(=O)O)cc2c(=O)[nH]1 [AGF145] | 7.17
Nc1nc2[nH]c(CCCCCCCC(=O)N[C@@H](CCC(=O)O)C(=O)O)cc2c(=O)[nH]1 | 7.00
